Our source for the IC50 values is ChEMBL document CHEMBL4382289, “Synthesis, Biological Evaluation and Structure-Activity Relationships of Diflapolin Analogues as Dual sEH/FLAP Inhibitors” (ACS Med Chem Lett, 2019).

Structures are written as SMILES.

Experiment [1] has as its target T1, Bifunctional epoxide hydrolase 2 (Homo sapiens, UniProt P34913).
T1 sequence (P34913 whole entry): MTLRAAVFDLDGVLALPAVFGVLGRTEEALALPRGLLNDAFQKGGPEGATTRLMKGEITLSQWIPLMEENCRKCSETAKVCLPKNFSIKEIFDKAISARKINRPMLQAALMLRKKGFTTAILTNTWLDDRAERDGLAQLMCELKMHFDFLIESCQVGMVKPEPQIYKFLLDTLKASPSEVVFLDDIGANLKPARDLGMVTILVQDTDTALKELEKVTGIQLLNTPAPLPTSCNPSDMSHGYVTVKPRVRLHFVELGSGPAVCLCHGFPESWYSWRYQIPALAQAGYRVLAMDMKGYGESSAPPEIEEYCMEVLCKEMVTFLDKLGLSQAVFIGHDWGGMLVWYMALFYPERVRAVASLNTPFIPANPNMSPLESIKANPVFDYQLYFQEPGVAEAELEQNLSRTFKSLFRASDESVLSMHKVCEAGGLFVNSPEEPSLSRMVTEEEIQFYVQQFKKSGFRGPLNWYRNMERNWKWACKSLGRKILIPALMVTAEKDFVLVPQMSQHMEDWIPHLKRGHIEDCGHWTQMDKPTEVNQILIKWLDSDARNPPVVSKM
As to the kind of experiment: Inhibition of recombinant human sEH preincubated for 10 mins followed by PHOME substrate addition and measured after 60 mins by fluorescence-based assay.

Experiment [2] concerns the target T2, Arachidonate 5-lipoxygenase-activating protein (Homo sapiens, UniProt P20292).
T2 sequence (P20292 whole entry): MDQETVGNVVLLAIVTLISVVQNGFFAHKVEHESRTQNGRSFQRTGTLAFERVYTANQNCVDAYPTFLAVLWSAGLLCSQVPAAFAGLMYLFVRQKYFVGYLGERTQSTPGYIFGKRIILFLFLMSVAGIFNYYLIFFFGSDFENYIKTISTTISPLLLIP
As to the kind of experiment: Inhibition of 5-LO in human neutrophils preincubated for 10 mins followed by Ca2+ ionophore A23187 addition and measured after 10 mins by RP-HPLC analysis.

Consider `Cc1cc(OCc2nc3ccccc3s2)ccc1NC(=O)Nc1ccc(Cl)c(Cl)c1`, for which the half-maximal inhibitory concentration (IC50) (as a rule, the concentration needed to halve the response being measured) in experiment [1] amounted to 23 nM. Turning to `O=C(Nc1ccc(CCc2nc3ccccc3s2)cc1)Nc1ccc(Cl)c(Cl)c1`, the IC50 is 11.7 nM in experiment [1] and above 10000 nM in experiment [2]. As to `Cc1cc(OCc2nc3ccccc3s2)ccc1NC(=O)Nc1ccccc1Cl`, the IC50 was 1500 nM in experiment [1] and 830 nM in experiment [2]. In the case of `O=C(Nc1ccc(Cl)cc1)Nc1ccc(OCc2nc3ccccc3s2)cc1`, the results for the half-inhibitory concentration (IC50) in experiment [1] and in experiment [2] were 13.9 nM and 1010 nM, respectively. The like results for `O=C(Nc1ccc(OCc2nc3ccccc3s2)cc1)Nc1cc(Cl)cc(Cl)c1` were, in that order, 15.2 nM and 90 nM. `Cc1cc(OCc2nc3ccccc3s2)ccc1NC(=O)Nc1cccc(Cl)c1`: the figures for the half-inhibitory concentration (IC50) in experiment [1] and in experiment [2] were 15.8 nM and 160 nM, respectively. With `Cc1cc(OCc2nc3ccccc3s2)ccc1NC(=O)Nc1cc(Cl)cc(Cl)c1`, the results for the half-maximal inhibitory concentration (IC50) in experiment [1] and in experiment [2] were 20 nM and 80 nM, respectively. Turning to `Cc1cc(NC(=O)Nc2ccccc2)ccc1OCc1nc2ccccc2s1`, the IC50 was 6.5 nM in experiment [1] and 2070 nM in experiment [2]. As to `Cc1cc(NC(=O)Nc2ccc(Cl)c(Cl)c2)ccc1OCc1nc2ccccc2s1`, the IC50 was 0.6 nM in experiment [1] and 2170 nM in experiment [2].

In the case of `Cc1cc(NC(=O)Nc2ccccc2Cl)ccc1OCc1nc2ccccc2s1`, the results for the half-maximal inhibitory concentration (IC50) in experiment [1] and in experiment [2] were 35.1 nM and 680 nM, respectively. In the case of `O=C(Nc1ccc(OCc2nc3ccccc3s2)cc1)Nc1cccc(Cl)c1`, the IC50 in experiment [1] came out at 25.9 nM; in experiment [2], 170 nM. The like results for `Cc1cc(NC(=O)Nc2ccc(Cl)cc2)ccc1OCc1nc2ccccc2s1` were, in that order, 4.1 nM and above 10000 nM. The like results for `Cc1cc(OCc2nc3ccccc3s2)ccc1NC(=O)Nc1ccc(Cl)cc1` were, in that order, 5.2 nM and 570 nM. In the same order, the values of `O=C(Nc1ccc(OCc2nc3ccccc3s2)cc1)Nc1ccccc1Cl` are 279 nM and 360 nM. Take `Cc1cc(OCc2nc3ccccc3s2)ccc1NC(=O)Nc1ccccc1`: the IC50 was determined as 61.9 nM in experiment [1] and 730 nM in experiment [2]. Regarding `Cc1cc(NC(=O)Nc2cc(Cl)cc(Cl)c2)ccc1OCc1nc2ccccc2s1`, the 50% inhibitory concentration (IC50) in experiment [1] is 0.8 nM; in experiment [2] it was 720 nM. Consider `O=C(Nc1ccc(SCc2nc3ccccc3s2)cc1)Nc1ccc(Cl)c(Cl)c1`, for which the concentration for half-maximal inhibition (IC50) turned out to be 25.2 nM in experiment [1] and 1130 nM in experiment [2]. Turning to `O=C(Nc1ccc(/C=C/c2nc3ccccc3s2)cc1)Nc1ccc(Cl)c(Cl)c1`, the figures for the IC50 in experiment [1] and in experiment [2] were 9.1 nM and 10800 nM, respectively.

`Cc1cc(NC(=O)Nc2cccc(Cl)c2)ccc1OCc1nc2ccccc2s1`: the figures for the IC50 in experiment [1] and in experiment [2] were 2 nM and 2090 nM, respectively. The like results for `O=C(Nc1ccc(OCc2nc3ccccc3s2)cc1)Nc1ccc(Cl)c(Cl)c1` were, in that order, 10.3 nM and 570 nM. For `O=C(Nc1ccccc1)Nc1ccc(OCc2nc3ccccc3s2)cc1`, the figures for the IC50 in experiment [1] and in experiment [2] were 111 nM and 420 nM, respectively.
